From patent publication US20240209005A1, “BICYCLIC HETEROARYL BORONATE DERIVATIVES AS ECTONUCLEOTIDE PYROPHOSPHATASE PHOSPHODIESTERASE 1 INHIBITORS” (RIBOSCIENCE LLC, priority 2021, published 2024)
Counter-ions that a name gives are not always drawn.

Target: T1, ENPP1 (Homo sapiens, UniProt P22413)
T1 sequence (P22413 1-925): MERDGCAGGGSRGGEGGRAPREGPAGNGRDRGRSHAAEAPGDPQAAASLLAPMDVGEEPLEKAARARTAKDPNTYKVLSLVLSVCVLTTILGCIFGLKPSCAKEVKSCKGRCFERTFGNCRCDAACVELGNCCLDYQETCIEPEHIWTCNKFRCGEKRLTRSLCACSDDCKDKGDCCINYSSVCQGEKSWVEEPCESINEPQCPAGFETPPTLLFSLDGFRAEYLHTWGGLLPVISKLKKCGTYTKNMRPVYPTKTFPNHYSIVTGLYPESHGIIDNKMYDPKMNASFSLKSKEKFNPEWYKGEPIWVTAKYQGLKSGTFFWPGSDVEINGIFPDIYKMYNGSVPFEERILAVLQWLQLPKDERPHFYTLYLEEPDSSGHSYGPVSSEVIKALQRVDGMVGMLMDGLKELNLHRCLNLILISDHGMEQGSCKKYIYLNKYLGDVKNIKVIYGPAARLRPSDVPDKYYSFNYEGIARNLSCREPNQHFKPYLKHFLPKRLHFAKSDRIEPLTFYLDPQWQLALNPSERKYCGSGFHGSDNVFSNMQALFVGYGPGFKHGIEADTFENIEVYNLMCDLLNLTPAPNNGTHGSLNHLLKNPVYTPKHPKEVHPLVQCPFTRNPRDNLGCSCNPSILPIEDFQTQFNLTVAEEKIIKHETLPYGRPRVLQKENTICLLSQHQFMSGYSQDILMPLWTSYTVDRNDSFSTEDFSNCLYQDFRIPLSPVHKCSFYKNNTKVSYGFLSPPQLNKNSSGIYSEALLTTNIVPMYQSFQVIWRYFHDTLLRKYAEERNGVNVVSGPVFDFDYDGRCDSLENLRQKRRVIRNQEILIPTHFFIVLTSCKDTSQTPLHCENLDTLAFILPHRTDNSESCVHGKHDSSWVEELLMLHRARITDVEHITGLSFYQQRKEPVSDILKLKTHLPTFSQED
Assay: Measurement of pNP-TMP hydrolysis by ENPP1
Assay type: biochemical
Conditions: purified ENPP1, pNP-TMP substrate 500 μM, KM 232 μM; Ki calculated from IC50 by Cheng-Prusoff
Method: p-Nitrophenyl thymidine 5′-monophosphate (pNP-TMP) is a synthesized substrate for ENPP1. The ENPP1 enzyme activity assay with pNP-TMP substrate was conducted as follows:
Incubation of ENPP1 with compounds was set at 25° C. for 10 min. […] For each compound dilution, wells with assay buffer (50 mM Tris-HCl, pH8.8, 250 mM NaCl, 0.1 mg/ml BSA, 1% DMSO) only but no ENPP1 were included as controls for subtraction of test compound derived absorbance at 405 nm.
Absorbance at 405 nm was recorded immediately in kinetic mode by PerkinElmer 2300 Enspire multimode plate reader.
For each inhibitor, the specific ENPP1 activity was calculated using the following equation: ENPP1 activity (pmol/min/g)=Adjusted Vmax (OD405 nm/min) X conversion factor (pmol/OD405 nm)/amount of enzyme (g)
Adjusted Vmax=V0×(Km+(S))/(S).
V0=(OD405 nm with ENPP1−OD405 nm ENPP1 blank)/minutes. OD405 nm was plotted, with blank subtracted, against time (minutes), the initial linear rate is V0. […]
The slope is the conversion factor. The percent ENPP1 activity for each sample was calculated using the following equation:
% enzyme activity=sample enzyme activity/MAX Activity×100%.
To determine the IC50 for each compound, compound concentration values and percent enzyme activity values were inserted into GraphPad Prism (GraphPad Prism version 7.0 for Windows, GraphPad Software, La Jolla California USA, www.graphpad.com), and Prism's Transform analysis was used to convert the x-axis values (compound concentration) to logarithms. A sigmoidal variable slope nonlinear regression analysis was performed using the following equation: Y=Bottom+(Top−Bottom)/(1+10^((LogIC50−X)*HillSlope)).

Structure (SMILES) | Ki [nM]
CC(=O)Nc1cn(C)c2c(NCc3ccc(B(O)O)cc3)ncnc12 [Cpd. 2, 4-[([7-acetamido-5-methylpyrrolo[3,2-d]pyrimidin-4-yl]-amino)methyl]phenylboronic acid] | < 1000
Cn1ncc2nc(C=Cc3ccccc3)nc(NCc3ccc(B(O)O)cc3)c21 (mixture of isomers) [compound 34, 4-[([1-methyl-5-[2-phenylethenyl]pyrazolo[4,3-d]pyrimidin-7-yl]amino)-methyl]phenylboronic acid] | < 1000
OB(O)c1ccc(CNc2ncnc3cc[nH]c23)cc1 [Cpd. 4, 4-([5H-pyrrolo[3,2-d]pyrimidin-4-ylamino]methyl)phenyl-boronic acid] | < 10000
Cn1ncc2nc(-c3cnccn3)nc(NCc3ccc(B(O)O)cc3)c21 [compound 33, 4-([[1-methyl-5-(pyrazin-2-yl)pyrazolo[4,3-d]pyrimidin-7-yl]amino]methyl)-phenylboronic acid] | < 100
CNC(=O)c1c[nH]c2c(NCc3ccc(B(O)O)cc3)ncnc12 [compound 17, 4-([[7-(methylcarbamoyl)-5H-pyrrolo[3,2-d]pyrimidin-4-yl]amino]methyl)phenylboronic acid; formic acid] | < 100
CNC(=O)c1csc2c(NCc3ccc(B(O)O)cc3)ncnc12 [compound 12, 4-([[7-(methylcarbamoyl)thieno[3,2-d]pyrimidin-4-yl]-amino]methyl)phenylboronic acid] | < 100
OB(O)c1ccc(CNc2ncnc3nc[nH]c23)cc1 [compound 20, 4-[(7H-purin-6-ylamino)methyl]phenylboronic acid] | < 10000
O=CNc1csc2c(NCc3ccc(B(O)O)cc3)ncnc12 [compound 25, 4-[([7-formamidothieno[3,2-d]pyrimidin-4-yl]amino)-methyl]phenylboronic acid] | < 100
N#Cc1c[nH]c2c(NCc3ccc(B(O)O)cc3)ncnc12 [compound 15, 4-[([7-cyano-5H-pyrrolo[3,2-d]pyrimidin-4-yl]amino)methyl]phenylboronic acid] | < 100
CC(C)c1nc(NCc2ccc(B(O)O)cc2)c2[nH]ncc2n1 [compound 27, 4-[([5-isopropyl-1H-pyrazolo[4,3-d]pyrimidin-7-yl]-amino)methyl]phenylboronic acid formic acid salt] | < 1000
CN(C)C(=O)c1c[nH]c2c(NCc3ccc(B(O)O)cc3)ncnc12 [compound 11, 4-([[7-(dimethylcarbamoyl)-5H-pyrrolo[3,2-d]pyrimidin-4-yl]-amino]methyl)phenylboronic acid] | < 1000
CC(C)c1nc(NCc2ccc(B(O)O)cc2)c2c(cnn2C)n1 [compound 6, 4-[([5-isopropyl-1-methylpyrazolo[4,3-d]pyrimidin-7-yl]-amino)methyl]phenylboronic acid] | < 100
O=CNc1csc2c(C#Cc3ccc(B(O)O)cc3)ncnc12 [compound 36, 4-(2-[7-formamidothieno[3,2-d]pyrimidin-4-yl]ethynyl)-phenylboronic acid] | < 1000
CNC(=O)c1n[nH]c2c(NCc3ccc(B(O)O)cc3)ncnc12 [Cpd. 22] | > 10000
Cn1ccc2ncnc(NCc3ccc(B(O)O)cc3)c21 [compound 1, 4-[([5-methylpyrrolo[3,2-d]pyrimidin-4-yl]amino)-methyl]phenylboronic acid; formic acid] | < 100
Cn1ncc2nc(-c3cccnc3)nc(NCc3ccc(B(O)O)cc3)c21 [compound 31, 4-([[1-methyl-5-(pyridin-3-yl)pyrazolo[4,3-d]pyrimidin-7-yl]amino]methyl)-phenylboronic acid] | < 1000
Cn1ncc2nc(-c3ccccn3)nc(NCc3ccc(B(O)O)cc3)c21 [compound 30, 4-([[1-methyl-5-(pyridin-2-yl)pyrazolo[4,3-d]pyrimidin-7-yl]amino]-methyl)phenylboronic acid] | < 100
CCC(=O)Nc1csc2c(NCc3ccc(B(O)O)cc3)ncnc12 [compound 3, 4-[([7-propanamidothieno[3,2-d]pyrimidin-4-yl]amino)-methyl]phenylboronic acid] | < 1000
